Data from patent US12077503B2, “Substituted cyclic amides and their use as herbicides” (FMC CORPORATION, priority 2015, dated 2024).

Legend:
Type in all cases: in vivo
[1] = system: barnyardgrass (Echinochloa crus-galli); experiment: Test G Pre-Emergence Protocol; conditions: Echinochloa crus-galli, pre-emergence, 312 h, evaluated after 13 days
In short: (§1)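 Test compound in 0.5% Tween 20 acetone/water (50:50) was applied at three rates (15.625, 62.5, 250 g/ha) to soil sown one day earlier. After 13 days plants were scored for injury, where 0 means unaffected and 100 means completely damaged.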

[2] = system: redroot pigweed (Amaranthus retroflexus); experiment: Test G Pre-Emergence Protocol; conditions: Amaranthus retroflexus, pre-emergence, 312 h, evaluated after 13 days
In short: as §1

corn (Zea mays) [3] = experiment: Test G Pre-Emergence Protocol; conditions: Zea mays, pre-emergence, 312 h, evaluated after 13 days
In short: as §1

[4] = system: velvetleaf (Abutilon theophrasti); experiment: Test G Pre-Emergence Protocol; conditions: Abutilon theophrasti, pre-emergence, 312 h, evaluated after 13 days
In short: as §1

[5] = system: ivy-leaved morning glory (Ipomoea hederacea); experiment: Test G Pre-Emergence Protocol; conditions: Ipomoea, pre-emergence, 312 h, evaluated after 13 days
In short: as §1

[6] = system: giant foxtail (Setaria faberi); experiment: Test G Pre-Emergence Protocol; conditions: Setaria faberi, pre-emergence, 312 h, evaluated after 13 days
In short: as §1

[7] = system: barnyardgrass (Echinochloa crus-galli); experiment: Test G Post-Emergence Protocol; conditions: Echinochloa crus-galli, post-emergence, 312 h
In short: (§2)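 Values are percent visual injury at 13 days after treatment (0 none, 100 total). Treatment was a post-emergence spray at 15.625, 62.5 or 250 g/ha on 8-day-old pot plants kept at 24/16 °C.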

[8] = system: redroot pigweed (Amaranthus retroflexus); experiment: Test G Post-Emergence Protocol; conditions: Amaranthus retroflexus, post-emergence, 312 h
In short: as §2

corn (Zea mays) [9] = experiment: Test G Post-Emergence Protocol; conditions: Zea mays, post-emergence, 312 h
In short: as §2

[10] = system: velvetleaf (Abutilon theophrasti); experiment: Test G Post-Emergence Protocol; conditions: Abutilon theophrasti, post-emergence, 312 h
In short: as §2

[11] = system: ivy-leaved morning glory (Ipomoea hederacea); experiment: Test G Post-Emergence Protocol; conditions: Ipomoea, post-emergence, 312 h
In short: as §2

[12] = system: giant foxtail (Setaria faberi); experiment: Test G Post-Emergence Protocol; conditions: Setaria faberi, post-emergence, 312 h
In short: as §2

In the case of `Cc1cc(NC(=O)[C@@H]2C(=O)N(C)C[C@H]2c2ccc(C(F)(F)F)cc2)ccc1F` (racemic) [Compound 1593], the pest or weed control at 15.625 g/ha ([1]; 15.625 g ai/ha, read-out: Barnyard grass damage rating (100=total damage to plant; 0=no damage to plant)) is reported as 0%, the pest or weed control at 62.5 g/ha ([1]; 62.5 g ai/ha, 100=total damage to plant, 0=no damage to plant, read-out: plant damage rating, Barnyardgrass) is reported as 0% and the pest or weed control at 250 g/ha ([1]; 250 g ai/ha, read-out: Barnyardgrass damage rating (100=total damage to plant; 0=no damage to plant)) is reported as 20%. It also gave a pest or weed control at 15.625 g/ha ([2]; 15.625 g ai/ha, read-out: Pigweed, Redroot damage rating (100=total damage to plant; 0=no damage to plant)) of 0%, a pest or weed control at 62.5 g/ha ([2]; 62.5 g ai/ha, 100=total damage to plant, 0=no damage to plant, read-out: plant damage rating, Pigweed, Redroot) of 0% and a pest or weed control at 250 g/ha ([2]; 250 g ai/ha, read-out: Pigweed, Redroot damage rating (100=total damage to plant; 0=no damage to plant)) of 0%. It also gave a plant injury at 15.625 g/ha (corn (Zea mays) [3]; 15.625 g ai/ha, read-out: Corn damage rating (100=total damage to plant; 0=no damage to plant)) of 0%, a plant injury at 62.5 g/ha (corn (Zea mays) [3]; 62.5 g ai/ha, 100=total damage to plant, 0=no damage to plant, read-out: plant damage rating, Corn) of 0% and a plant injury at 250 g/ha (corn (Zea mays) [3]; 250 g ai/ha, read-out: Corn damage rating (100=total damage to plant; 0=no damage to plant)) of 0%. The pest or weed control at 15.625 g/ha ([4]; 15.625 g ai/ha, read-out: Velvetleaf damage rating (100=total damage to plant; 0=no damage to plant)) was 0%, the pest or weed control at 62.5 g/ha ([4]; 62.5 g ai/ha, 100=total damage to plant, 0=no damage to plant, read-out: plant damage rating, Velvetleaf) was 0% and the pest or weed control at 250 g/ha ([4]; 250 g ai/ha, read-out: Velvetleaf damage rating (100=total damage to plant; 0=no damage to plant)) was 0%. The pest or weed control at 15.625 g/ha ([5]; 15.625 g ai/ha, read-out: Morning-glory, Ivy-leaved damage rating (100=total damage to plant; 0=no damage to plant)) was 0%, the pest or weed control at 62.5 g/ha ([5]; 62.5 g ai/ha, 100=total damage to plant, 0=no damage to plant, read-out: plant damage rating, Morningglory, Ivy-leaved) was 0% and the pest or weed control at 250 g/ha ([5]; 250 g ai/ha, read-out: Morningglory, Ivy-leaved damage rating (100=total damage to plant; 0=no damage to plant)) was 0%. For the same compound, the pest or weed control at 15.625 g/ha ([6]; 15.625 g ai/ha, read-out: Foxtail, Giant damage rating (100=total damage to plant; 0=no damage to plant)) was 0%, the pest or weed control at 62.5 g/ha ([6]; 62.5 g ai/ha, 100=total damage to plant, 0=no damage to plant, read-out: plant damage rating, Foxtail, Giant) was 10% and the pest or weed control at 250 g/ha ([6]; 250 g ai/ha, read-out: Foxtail, Giant damage rating (100=total damage to plant; 0=no damage to plant)) was 70%. It also gave a pest or weed control at 15.625 g/ha ([7]; 15.625 g ai/ha, evaluated after 13 days (100=total damage to plant; 0=no damage to plant), read-out: Barnyardgrass damage rating) of 0%, a pest or weed control at 62.5 g/ha ([7]; 62.5 g ai/ha, evaluated after 13 days, read-out: Barnyardgrass damage rating (100=total damage to plant; 0=no damage to plant)) of 0% and a pest or weed control at 250 g/ha ([7]; 250 g ai/ha, evaluated after 13 days, read-out: damage to plant, Barnyardgrass (100=total damage to plant; 0=no damage to plant)) of 20%. For the same compound, the pest or weed control at 15.625 g/ha ([8]; 15.625 g ai/ha, evaluated after 13 days (100=total damage to plant; 0=no damage to plant), read-out: Pigweed, Redroot damage rating) was 0%, the pest or weed control at 62.5 g/ha ([8]; 62.5 g ai/ha, evaluated after 13 days, read-out: Pigweed, Redroot damage rating (100=total damage to plant; 0=no damage to plant)) was 0% and the pest or weed control at 250 g/ha ([8]; 250 g ai/ha, evaluated after 13 days, read-out: damage to plant, Pigweed, Redroot (100=total damage to plant; 0=no damage to plant)) was 0%. For the same compound, the plant injury at 15.625 g/ha (corn (Zea mays) [9]; 15.625 g ai/ha, evaluated after 13 days (100=total damage to plant; 0=no damage to plant), read-out: Corn damage rating) was 0%, the plant injury at 62.5 g/ha (corn (Zea mays) [9]; 62.5 g ai/ha, evaluated after 13 days, read-out: Corn damage rating (100=total damage to plant; 0=no damage to plant)) was 10% and the plant injury at 250 g/ha (corn (Zea mays) [9]; 250 g ai/ha, evaluated after 13 days, read-out: damage to plant, Corn (100=total damage to plant; 0=no damage to plant)) was 10%. The pest or weed control at 15.625 g/ha ([10]; 15.625 g ai/ha, evaluated after 13 days (100=total damage to plant; 0=no damage to plant), read-out: Velvetleaf damage rating) was 0%, the pest or weed control at 62.5 g/ha ([10]; 62.5 g ai/ha, evaluated after 13 days, read-out: Velvetleaf damage rating (100=total damage to plant; 0=no damage to plant)) was 0% and the pest or weed control at 250 g/ha ([10]; 250 g ai/ha, evaluated after 13 days, read-out: damage to plant, Velvetleaf (100=total damage to plant; 0=no damage to plant)) was 0%. For the same compound, the pest or weed control at 15.625 g/ha ([11]; 15.625 g ai/ha, evaluated after 13 days (100=total damage to plant; 0=no damage to plant), read-out: Morningglory, Ivy-leaved damage rating) was 0%, the pest or weed control at 62.5 g/ha ([11]; 62.5 g ai/ha, evaluated after 13 days, read-out: Morningglory, Ivy-leaved damage rating (100=total damage to plant; 0=no damage to plant)) was 0% and the pest or weed control at 250 g/ha ([11]; 250 g ai/ha, evaluated after 13 days, read-out: damage to plant, Morningglory, Ivy-leaved (100=total damage to plant; 0=no damage to plant)) was 0%. It also gave a pest or weed control at 15.625 g/ha ([12]; 15.625 g ai/ha, evaluated after 13 days (100=total damage to plant; 0=no damage to plant), read-out: Foxtail, Giant damage rating) of 0%, a pest or weed control at 62.5 g/ha ([12]; 62.5 g ai/ha, evaluated after 13 days, read-out: Foxtail, Giant damage rating (100=total damage to plant; 0=no damage to plant)) of 10% and a pest or weed control at 250 g/ha ([12]; 250 g ai/ha, evaluated after 13 days, read-out: damage to plant, Foxtail, Giant (100=total damage to plant; 0=no damage to plant)) of 70%.
